Experiments:
Format in all cases: in vivo
[1] = tested on: Kochia (Kochia scoparia); test: Test A preemergence; details: Bassia scoparia, pre-emergence, 240 h, preemergence, 0 to 100 scale where 0 is no effect and 100 is complete control, read-out: Kochia plant response rating; for pest or weed control at 125 g/ha: 125 g ai/ha, visual injury rating, approximately 10 d; for pest or weed control at 500 g/ha: 500 g ai/ha
Summary of the method: (§1)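 Seeded soil received test chemicals as a preemergence directed spray, and seedlings at one to two leaves, 2–10 cm tall, received them postemergence, in a non-phytotoxic, surfactant-containing solvent mixture. Pots were held in a greenhouse for approximately 10 d, then rated for injury from 0, no effect, to 100, complete control.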

[2] = tested on: barnyardgrass (Echinochloa crus-galli); test: Test A preemergence; details: Echinochloa crus-galli, pre-emergence, 240 h, preemergence, 0 to 100 scale where 0 is no effect and 100 is complete control, read-out: Barnyardgrass plant response rating; for pest or weed control at 125 g/ha: 125 g ai/ha, visual injury rating, approximately 10 d; for pest or weed control at 500 g/ha: 500 g ai/ha
Summary of the method: as §1

[3] = tested on: giant foxtail (Setaria faberii); test: Test A preemergence; details: Setaria faberi, pre-emergence, 240 h, preemergence, 0 to 100 scale where 0 is no effect and 100 is complete control, read-out: Foxtail, Giant plant response rating; for pest or weed control at 125 g/ha: 125 g ai/ha, visual injury rating, approximately 10 d; for pest or weed control at 500 g/ha: 500 g ai/ha
Summary of the method: as §1

[4] = tested on: ragweed (common ragweed, Ambrosia elatior); test: Test A preemergence; details: Ambrosia artemisiifolia, pre-emergence, 240 h, preemergence, 0 to 100 scale where 0 is no effect and 100 is complete control, read-out: Ragweed plant response rating; for pest or weed control at 125 g/ha: 125 g ai/ha, visual injury rating, approximately 10 d; for pest or weed control at 500 g/ha: 500 g ai/ha
Summary of the method: as §1

[5] = tested on: ryegrass, Italian (Italian ryegrass, Lolium multiflorum); test: Test A preemergence; details: Lolium multiflorum, pre-emergence, 240 h, preemergence, 0 to 100 scale where 0 is no effect and 100 is complete control, read-out: Ryegrass, Italian plant response rating; for pest or weed control at 125 g/ha: 125 g ai/ha, visual injury rating, approximately 10 d; for pest or weed control at 500 g/ha: 500 g ai/ha
Summary of the method: as §1

[6] = tested on: Galium (catchweed bedstraw, Galium aparine); test: Test A postemergence; details: Galium, post-emergence, 240 h, postemergence; for pest or weed control at 125 g/ha: 125 g ai/ha, visual injury vs untreated controls after approx. 10 d, 0 = no effect, 100 = complete control, read-out: Galium plant response rating (0 to 100 scale); for pest or weed control at 500 g/ha: 500 g ai/ha, 0 to 100 scale, 0 is no effect, 100 is complete control, read-out: Galium plant response rating
Summary of the method: as §1

[7] = tested on: Kochia (Kochia scoparia); test: Test A postemergence; details: Bassia scoparia, post-emergence, 240 h, postemergence; for pest or weed control at 125 g/ha: 125 g ai/ha, visual injury vs untreated controls after approx. 10 d, 0 = no effect, 100 = complete control, read-out: Kochia plant response rating (0 to 100 scale); for pest or weed control at 500 g/ha: 500 g ai/ha, 0 to 100 scale, 0 is no effect, 100 is complete control, read-out: Kochia plant response rating
Summary of the method: as §1

[8] = tested on: barnyardgrass (Echinochloa crus-galli); test: Test A postemergence; details: Echinochloa crus-galli, post-emergence, 240 h, postemergence; for pest or weed control at 125 g/ha: 125 g ai/ha, visual injury vs untreated controls after approx. 10 d, 0 = no effect, 100 = complete control, read-out: Barnyardgrass plant response rating (0 to 100 scale); for pest or weed control at 500 g/ha: 500 g ai/ha, 0 to 100 scale, 0 is no effect, 100 is complete control, read-out: Barnyardgrass plant response rating
Summary of the method: as §1

[9] = tested on: blackgrass (Alopecurus myosuroides); test: Test A postemergence; details: Alopecurus myosuroides, post-emergence, 240 h, postemergence; for pest or weed control at 125 g/ha: 125 g ai/ha, visual injury vs untreated controls after approx. 10 d, 0 = no effect, 100 = complete control, read-out: Blackgrass plant response rating (0 to 100 scale); for pest or weed control at 500 g/ha: 500 g ai/ha, 0 to 100 scale, 0 is no effect, 100 is complete control, read-out: Blackgrass plant response rating
Summary of the method: as §1

[10] = tested on: corn (Zea mays); test: Test A postemergence; details: Zea mays, post-emergence, 240 h, postemergence; for plant injury at 125 g/ha: 125 g ai/ha, visual injury vs untreated controls after approx. 10 d, 0 = no effect, 100 = complete control, read-out: Corn plant response rating (0 to 100 scale); for plant injury at 500 g/ha: 500 g ai/ha, 0 to 100 scale, 0 is no effect, 100 is complete control, read-out: Corn plant response rating
Summary of the method: as §1

[11] = tested on: giant foxtail (Setaria faberii); test: Test A postemergence; details: Setaria faberi, post-emergence, 240 h, postemergence; for pest or weed control at 125 g/ha: 125 g ai/ha, visual injury vs untreated controls after approx. 10 d, 0 = no effect, 100 = complete control, read-out: Foxtail, Giant plant response rating (0 to 100 scale); for pest or weed control at 500 g/ha: 500 g ai/ha, 0 to 100 scale, 0 is no effect, 100 is complete control, read-out: Foxtail, Giant plant response rating
Summary of the method: as §1

[12] = tested on: pigweed (Amaranthus retroflexus); test: Test A postemergence; details: Amaranthus retroflexus, post-emergence, 240 h, postemergence; for pest or weed control at 125 g/ha: 125 g ai/ha, visual injury vs untreated controls after approx. 10 d, 0 = no effect, 100 = complete control, read-out: Pigweed plant response rating (0 to 100 scale); for pest or weed control at 500 g/ha: 500 g ai/ha, 0 to 100 scale, 0 is no effect, 100 is complete control, read-out: Pigweed plant response rating
Summary of the method: as §1

[13] = tested on: ragweed (common ragweed, Ambrosia elatior); test: Test A postemergence; details: Ambrosia artemisiifolia, post-emergence, 240 h, postemergence; for pest or weed control at 125 g/ha: 125 g ai/ha, visual injury vs untreated controls after approx. 10 d, 0 = no effect, 100 = complete control, read-out: Ragweed plant response rating (0 to 100 scale); for pest or weed control at 500 g/ha: 500 g ai/ha, 0 to 100 scale, 0 is no effect, 100 is complete control, read-out: Ragweed plant response rating
Summary of the method: as §1

[14] = tested on: ryegrass, Italian (Italian ryegrass, Lolium multiflorum); test: Test A postemergence; details: Lolium multiflorum, post-emergence, 240 h, postemergence; for pest or weed control at 125 g/ha: 125 g ai/ha, visual injury vs untreated controls after approx. 10 d, 0 = no effect, 100 = complete control, read-out: Ryegrass, Italian plant response rating (0 to 100 scale); for pest or weed control at 500 g/ha: 500 g ai/ha, 0 to 100 scale, 0 is no effect, 100 is complete control, read-out: Ryegrass, Italian plant response rating
Summary of the method: as §1

[15] = tested on: wheat (Triticum aestivum); test: Test A postemergence; details: Triticum aestivum, post-emergence, 240 h, postemergence; for plant injury at 125 g/ha: 125 g ai/ha, visual injury vs untreated controls after approx. 10 d, 0 = no effect, 100 = complete control, read-out: Wheat plant response rating (0 to 100 scale); for plant injury at 500 g/ha: 500 g ai/ha, 0 to 100 scale, 0 is no effect, 100 is complete control, read-out: Wheat plant response rating
Summary of the method: as §1

Compound	pest or weed control at 125 g/ha [1]	pest or weed control at 500 g/ha [1]	pest or weed control at 125 g/ha [2]	pest or weed control at 500 g/ha [2]	pest or weed control at 125 g/ha [3]	pest or weed control at 500 g/ha [3]	pest or weed control at 125 g/ha [4]	pest or weed control at 500 g/ha [4]	pest or weed control at 125 g/ha [5]	pest or weed control at 500 g/ha [5]	pest or weed control at 125 g/ha [6]	pest or weed control at 500 g/ha [6]	pest or weed control at 125 g/ha [7]	pest or weed control at 500 g/ha [7]	pest or weed control at 125 g/ha [8]	pest or weed control at 500 g/ha [8]	pest or weed control at 125 g/ha [9]	pest or weed control at 500 g/ha [9]	plant injury at 125 g/ha [10]	plant injury at 500 g/ha [10]	further results
Cc1c(F)cccc1NC(=O)[C@H]1C(=O)N(C)C[C@@H]1c1ccc(F)c(Br)c1 [Compound 1211]	20%	70%	100%	100%	100%	100%	50%	50%	50%	80%	50%	60%	0%	30%	100%	100%	30%	40%	80%	90%	pest or weed control at 125 g/ha [11]: 80%; pest or weed control at 500 g/ha [11]: 80%; pest or weed control at 125 g/ha [12]: 30%; pest or weed control at 500 g/ha [12]: 30%; pest or weed control at 125 g/ha [13]: 0%; pest or weed control at 500 g/ha [13]: 0%; pest or weed control at 125 g/ha [14]: 0%; pest or weed control at 500 g/ha [14]: 70%; plant injury at 125 g/ha [15]: 30%; plant injury at 500 g/ha [15]: 60%
Cc1c(F)cccc1NC(=O)[C@H]1C(=O)N(C)C[C@@H]1c1ccc(OC(F)F)cc1 [Compound 1213]	70%	80%	100%	100%	100%	100%	50%	70%	20%	70%	50%	60%	50%	60%	100%	100%	20%	40%	50%	80%	pest or weed control at 125 g/ha [11]: 90%; pest or weed control at 500 g/ha [11]: 90%; pest or weed control at 125 g/ha [12]: 0%; pest or weed control at 500 g/ha [12]: 0%; pest or weed control at 125 g/ha [13]: 0%; pest or weed control at 500 g/ha [13]: 0%; pest or weed control at 125 g/ha [14]: 0%; pest or weed control at 500 g/ha [14]: 50%; plant injury at 125 g/ha [15]: 40%; plant injury at 500 g/ha [15]: 50%
